# Where two headings read alike, the source gives them in different places.
# Tests used:
# human PRMT8 = human PRMT8 (Homo sapiens, UniProt Q9NR22); experiment: PRMT8 Biochemical Assay (3H-SAM Flashplate, peptide substrate); settings: single experiment or average of multiple experiments
# Procedure, shortened: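 Methylation of a biotin-tagged histone H4 peptide (residues 31-45) by recombinant PRMT8 was measured as 3H transfer from 3H-SAM, after a 30 min room-temperature compound preincubation in Bicine buffer pH 7.6. Reactions were quenched with unlabelled SAM to 400 uM final, then bound counts were read by streptavidin Flashplate. IC50 came from a Hill fit of % inhibition relative to max and SAH min controls.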
# human PRMT6 = molecular target: T1, human PRMT6 (Homo sapiens, UniProt Q96LA8); experiment: PRMT6 Biochemical Assay (3H-SAM Flashplate, peptide substrate)
# T1 construct: Flag-PRMT6-His; made in house; host or cells: HEK 293F cells (BacMam baculovirus)
# T1 sequence (Q96LA8 with tags, fused parts or gaps): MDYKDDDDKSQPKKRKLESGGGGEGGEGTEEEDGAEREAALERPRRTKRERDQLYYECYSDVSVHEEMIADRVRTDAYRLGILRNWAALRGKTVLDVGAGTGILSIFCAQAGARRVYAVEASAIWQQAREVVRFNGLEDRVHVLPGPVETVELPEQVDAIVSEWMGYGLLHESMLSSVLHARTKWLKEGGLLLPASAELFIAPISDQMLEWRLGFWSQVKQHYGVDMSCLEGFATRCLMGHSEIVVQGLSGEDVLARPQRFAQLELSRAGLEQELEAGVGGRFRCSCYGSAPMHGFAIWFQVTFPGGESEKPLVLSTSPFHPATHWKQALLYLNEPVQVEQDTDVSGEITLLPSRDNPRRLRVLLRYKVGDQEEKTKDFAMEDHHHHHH
# Procedure, shortened: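 Methylation of a biotin-tagged H4 (36-50) peptide by ³H-SAM was quantified by streptavidin Flashplate capture and scintillation counts (dpm/cpm). Before SAM/peptide addition, Flag-PRMT6-His was preincubated with compound for 30 min at room temperature in Bicine buffer, pH 7.6.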
# [1] = Biochemical IC50 PRMT6, single experiment or average of multiple experiments
# [2] = single experiment or average of multiple experiments, read-out: Biochemical IC50 PRMT6
# Chain of human PRMT8 (Q9NR22 whole entry, the tested form may be a part): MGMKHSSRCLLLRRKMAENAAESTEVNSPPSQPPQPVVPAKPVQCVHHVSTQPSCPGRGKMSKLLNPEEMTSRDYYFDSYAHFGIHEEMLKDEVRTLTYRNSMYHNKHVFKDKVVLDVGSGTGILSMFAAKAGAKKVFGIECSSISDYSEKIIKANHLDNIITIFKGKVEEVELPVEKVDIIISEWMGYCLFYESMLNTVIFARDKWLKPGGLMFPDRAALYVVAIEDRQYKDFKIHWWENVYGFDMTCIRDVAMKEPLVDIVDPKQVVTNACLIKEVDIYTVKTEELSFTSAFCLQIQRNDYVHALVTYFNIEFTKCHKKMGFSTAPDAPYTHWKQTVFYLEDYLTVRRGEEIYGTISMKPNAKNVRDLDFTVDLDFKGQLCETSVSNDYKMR
IC50 (human PRMT8) [nM],IC50 (human PRMT6; [1]) [nM],Compound,IC50 (human PRMT6; [2]) [nM]
57.7,7.79,CCCc1ccc(-c2n[nH]cc2CN(C)CCNC)cc1 [Compound 20],–
520,12.2,CNCCN(C)Cc1c[nH]nc1-c1cccc([N+](=O)[O-])c1 [Compound 21],–
2240,11.9,CNCCN(C)Cc1c[nH]nc1-c1cccc(C#N)c1 [Compound 22],–
3290,183,CNCCN(C)Cc1c[nH]nc1-c1ccccc1OC [Compound 23],–
888,26.2,CNCCN(C)Cc1c[nH]nc1-c1cccc(OC)c1 [Compound 24],–
550,10.9,CNCCN(C)Cc1c[nH]nc1-c1ccc(OC)cc1 [Compound 25],–
1500,22.5,CNCCN(C)Cc1c[nH]nc1-c1cccc(O)c1 [Compound 26],–
712,18.5,CNCCN(C)Cc1c[nH]nc1-c1ccc(O)cc1 [Compound 27],–
95.5,9.1,CNCCN(C)Cc1c[nH]nc1-c1ccc(CO)cc1 [Compound 28],–
2310,61.7,CNCCN(C)Cc1c[nH]nc1-c1ccc(C)cc1C [Compound 29],–
> 50000,565,CNCCN(C)Cc1cn(CCCC(O)CO)nc1-c1ccc(F)cc1 (centres unmarked) [Compound 30],–
6310,110,CNCCN(C)Cc1cnn(CCCC(O)CO)c1-c1ccc(F)cc1 (centres unmarked) [Compound 31],–
1430,37.9,CNCCN(C)Cc1c[nH]nc1-c1ccc(N)cc1 [Compound 33],–
57.6,3.29,CNCCN(C)Cc1c[nH]nc1-c1ccc(Oc2ccccc2)cc1 [Compound 37],–
2260,51.9,CCNC(=O)c1cccc(-c2n[nH]cc2CN(C)CCNC)c1 [Compound 43],–
749,39.3,CNCCN(C)Cc1c[nH]nc1-c1ccc(F)cc1F [Compound 49],–
1660,42.8,CNCCN(C)Cc1c[nH]nc1-c1cc(F)ccc1F [Compound 50],–
184,9.95,CNCCN(C)Cc1c[nH]nc1-c1ccc(F)c(F)c1 [Compound 51],–
219,8.92,CNCCN(C)Cc1c[nH]nc1-c1ccc(OC)c(F)c1 [Compound 52],–
196,10.3,CNCCN(C)Cc1c[nH]nc1-c1cccc2ccccc12 [Compound 57],–
170,6.14,CNCCN(C)Cc1c[nH]nc1-c1ccc2ccccc2c1 [Compound 58],–

IC50 (human PRMT8) [nM],IC50 (human PRMT6; [1]) [nM],Compound,IC50 (human PRMT6; [2]) [nM]
8860,627,CNCCN(C)Cc1cn(CCC(O)CO)nc1-c1ccc(F)cc1 (centres unmarked) [Compound 59],–
362,7.87,CCN(CCN)Cc1c[nH]nc1-c1ccc(F)cc1 [Compound 62],–
8030,1150,CCCN(CCN)Cc1c[nH]nc1-c1ccc(F)cc1 [Compound 63],–
8610,423,CN(CCN)Cc1cnn(CCO)c1-c1ccc(F)cc1 [Compound 65],–
8750,1040,CN(CCN)Cc1cn(CCO)nc1-c1ccc(F)cc1 [Compound 66],–
404,6.7,CN(CCN)Cc1c[nH]nc1-c1ccc(C#N)cc1 [Compound 68],–
2650,921,CNCCN(C)Cc1cn(C2CCCCC2)nc1-c1ccc(OC(C)C)cc1 [Compound 256],–
–,1.56,CNCCN(C)Cc1n[nH]cc1-c1ccc(Oc2cccc(C#N)c2)cc1 [Compound 267],–
–,2,CNCCN(C)Cc1n[nH]cc1-c1ccc(Oc2cccc(C(=O)NC)c2)cc1 [Compound 268],–
–,1.24,CNCCN(C)Cc1n[nH]cc1-c1ccc(Oc2cccc(F)c2)cc1 [Compound 270],–
–,864,CNCCN(C)Cc1n[nH]cc1-c1cc(CC(C)C)cc(CC(C)C)c1 [Compound 271],–
–,> 1000,CNCCN(C)Cc1n[nH]cc1-c1cc(OC(C)C)cc(C(C)C)c1 [Compound 272],–
–,31.6,CNCCN(C)Cc1n[nH]cc1-c1cc(Cl)c(OC(C)C)c(Cl)c1 [Compound 273],–
–,7.57,CNCCN(C)Cc1c[nH]nc1-c1ccc(Oc2ccccc2C(=O)NC)cc1 [Compound 274],–
–,20.9,CNCCN(C)Cc1n[nH]c(C)c1-c1ccc(OC(C)C)cc1 [Compound 275],–
–,> 1000,CNCCN(C)Cc1c(-c2ccc(OCCCOC)cc2)cnn1C [Compound 276],–
–,1.66,CNCCN(C)Cc1n[nH]cc1-c1ccc(Oc2cccc(C(C)C)c2)cc1 [Compound 277],–
–,1.87,"CNCCN(C)Cc1n[nH]cc1-c1ccc(Oc2ccccc2F)cc1 [Compound 279, N^1-((4-(4-(2-fluorophenoxy)phenyl)-1H-pyrazol-3-yl)methyl)-N^1,N^2-dimethylethane-1,2-diamine]",–
–,10.2,CC(C)Cc1cc(-c2n[nH]cc2CN(C)CCN)ccc1F [Compound 280],–
–,241,CNCCN(C)Cc1c[nH]nc1-c1cc(CC(C)C)cc(CC(C)C)c1 [Compound 281],–
–,4.75,CNCCN(C)Cc1c[nH]nc1-c1cc(Cl)c(OCC2CC2)c(Cl)c1 [Compound 282],–

Compound,IC50 (human PRMT8) [nM],IC50 (human PRMT6; [1]) [nM],IC50 (human PRMT6; [2]) [nM]
"CNCCN(C)Cc1c[nH]nc1-c1ccc(F)cc1 [Compound 2, N^1-((3-(4-fluorophenyl)-1H-pyrazol-4-yl)methyl)-N^1,N^2-dimethylethane-1,2-diamine]",507,96.1,–
CNCCN(C)Cc1c[nH]nc1-c1ccccc1C(F)(F)F [Compound 38],9900,–,352
CNCCN(C)Cc1c[nH]nc1-c1ccc(C(=O)c2ccccc2)cc1 [Compound 45],308,–,7.54
CNCCN(C)Cc1c[nH]nc1-c1ccccc1-c1ccccc1 [Compound 46],11900,–,3220
CNCCN(C)Cc1c[nH]nc1-c1ccc(OC)cc1OC [Compound 55],3190,–,87
CNCCN(C)Cc1c[nH]nc1-c1c(OC)cccc1OC [Compound 56],34900,–,1900
CNCCN(C)Cc1cnn(CC(=O)OC)c1-c1ccc(OC(C)C)cc1 [Compound 249],1500,428,–
CNCCN(C)Cc1cn(CC(=O)O)nc1-c1ccc(OC(C)C)cc1 [Compound 250],2540,4260,–

# — patent publication US9776972B2, “Pyrazole derivatives as arginine methyltransferase inhibitors and uses thereof” (priority 2013, dated 2017)
